Test results from patent US10544130B2, “Metallo-beta-lactamase inhibitors” (priority 2015, dated 2020).

Assays:
[1] = test system: Serratia marcescens expressing IMP-1 (CL5741); format: cell-based; conditions: with imipenem 1 μg/ml; 95% inhibition of bacterial growth
Description: Antibiotic Potentiation Activity: Determination of Synergistic Concentration
The bacterial strains tested included the clinical strains Escherichia coli expressing NDM-1 (CLB30005, CLB30016), Serratia marcescens expressing IMP-1 (CL5741), and Klebsiella pneumoniae expressing VIM-1 (IHMA599644). Inhibitor activity was measured in the presence and absence of imipenem in a 384-well microplate.
The clinical strains CLB30016, CL5741 and IHMA599644 were grown on trypticase soy agar containing 5% sheep's blood. The bacteria on agar plates were incubated at 35° C. with humidity overnight. The following day, individual colonies from each clinical strain were picked and resuspended in 5 ml saline to attain an OD600 of 0.14, 0.11, 0.15 and 0.13, for CLB30016, CL5741 and IHMA599644, respectively. These were further diluted 1:100 into 1.1× CAMHB and used to inoculate the test wells as described below.
Imipenem in 10 mM 3-(N-morpholino)propanesulfonic acid (MOPS, pH 7) was stored in single use aliquots at −80° C. […] On the day of the assay, 4 μl of antibiotic was added to 45 ul of bacteria followed by 1 μl of test compound and mixed by pipetting and with an orbital shaker. The concentration of antibiotic used in the assay was 1 μg/ml. Microplates were covered and incubated at 35° C. for 22 hours to 24 hours. At the end of the incubation, absorbance was determined using a spectrophotometer.

[2] = test system: Pseudomonas aeruginosa PAO1 MB9798 (efflux+, IMP-1); conditions: ratio MITC95 PA 9798/MITC95 PA 9799; imipenem at 2 μg/mL
Outline: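 Isogenic PAO1 pair (efflux+ MB9798, efflux− MB9799, both IMP-1) tested by microbroth MIC with fixed imipenem and/or ceftazidime, usually at CLSI breakpoint, plus fixed class A/C inhibitor against AmpC. MBL inhibitor titrated; concentration restoring susceptibility recorded and fold difference between strains taken as efflux extent.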

SMILES	Serratia marcescens (IMP-1) MITC95 [1] [µM]	Efflux ratio [2]
Nc1nc2c(-c3ccc(S(=O)(=O)N[C@@H]4C[C@H]4N)c(S(N)(=O)=O)c3-c3nnn[nH]3)cccc2[nH]1 [Example 448, 4-(2-amino-1H-benzo[d]imidazol-4-yl)-N^1-((1R,2R)-2-aminocyclopropyl)-3-(1H-tetrazol-5-yl)benzene-1,2-disulfonamide]	1.563	–
Nc1ccc(-c2ccc(S(=O)(=O)N[C@H]3CNC[C@H]3N)c(S(N)(=O)=O)c2-c2nn[nH]n2)cn1 [Example 413, 4-(6-aminopyridin-3-yl)-N^1-((3S,4R)-4-aminopyrrolidin-3-yl)-3-(2H-tetrazol-5-yl)benzene-1,2-disulfonamide]	1.563	–
NS(=O)(=O)c1c(S(=O)(=O)NC[C@H]2CNCCN2)ccc(-c2cccc3[nH]cnc23)c1-c1nn[nH]n1 [Example 481, (R)-4-(1H-benzo[d]imidazol-4-yl)-N1-(piperazin-2-ylmethyl)-3-(1H-tetrazol-5-yl)benzene-1,2-disulfonamide]	1.563	–
Nc1ccc2cccc(-c3ccc(S(=O)(=O)N[C@@H]4CCNC4)c(S(N)(=O)=O)c3-c3nn[nH]n3)c2n1 [Example 286, (R)-4-(2-aminoquinolin-8-yl)-N1-(pyrrolidin-3-yl)-3-(2H-tetrazol-5-yl)benzene-1,2-disulfonamide]	0.7813	–
Nc1ccc(-c2ccc(S(=O)(=O)N[C@H]3CN[C@H](CO)C3)c(S(N)(=O)=O)c2-c2nn[nH]n2)cn1 [Example 411, 4-(6-aminopyridin-3-yl)-N^1-((3R,5S)-5-(hydroxymethyl)pyrrolidin-3-yl)-3-(2H-tetrazol-5-yl)benzene-1,2-disulfonamide]	1.563	–
C[C@H](CN)NS(=O)(=O)c1ccc(-c2ccc(N)nc2)c(-c2nn[nH]n2)c1S(N)(=O)=O [Example 393, (R)—N^1-(1-aminopropan-2-yl)-4-(6-aminopyridin-3-yl)-3-(2H-tetrazol-5-yl)benzene-1,2-disulfonamide]	1.042	–
Nc1nc2c(-c3ccc(S(=O)(=O)N[C@@H](N)c4ccccn4)c(S(N)(=O)=O)c3-c3nnn[nH]3)cccc2s1.O=C(O)C(F)(F)F [Example 99, (R)-(4-(2-aminobenzo[d]thiazol-4-yl)-2-sulfamoyl-3-(1H-tetrazol-5-yl)phenylsulfonamido) (pyridin-2-yl)methanaminium 2,2,2-trifluoroacetate]	–	8.00
Nc1nc2c(-c3ccc(S(=O)(=O)N4CCC(N)CC4)c(S(N)(=O)=O)c3-c3nn[nH]n3)cccc2s1 [Example 148, 3-(2-aminobenzo[d]thiazol-4-yl)-6-((4-aminopiperidin-1-yl)sulfonyl)-2-(2H-tetrazol-5-yl)benzenesulfonamide]	–	2.00
NCCCNS(=O)(=O)c1ccc(-c2cccc3[nH]c(N)nc23)c(-c2nn[nH]n2)c1S(N)(=O)=O [Example 182, 4-(2-amino-1H-benzo[d]imidazol-4-yl)-N1-(3-aminopropyl)-3-(2H-tetrazol-5-yl)benzene-1,2-disulfonamide]	–	0.80
N[C@@H](CO)CNS(=O)(=O)c1ccc(-c2cccc(C3N=CN=N3)c2)c(-c2nn[nH]n2)c1S(N)(=O)=O (stereo partly drawn) [Example 226, N4-((R)-2-amino-3-hydroxypropyl)-2-(2H-tetrazol-5-yl)-3′-(3H-1,2,4-triazol-3-yl)-[1,1′-biphenyl]-3,4-disulfonamide]	–	2.00
NCC1CN(S(=O)(=O)c2ccc(-c3cccc4sc(N)nc34)c(-c3nnn[nH]3)c2S(N)(=O)=O)CCO1.O=C(O)C(F)(F)F (stereo not shown) [Example 104, (4-((4-(2-aminobenzo[d]thiazol-4-yl)-2-sulfamoyl-3-(1H-tetrazol-5-yl)phenyl)sulfonyl)morpholin-2-yl) methanaminium 2,2,2-trifluoroacetate]	–	2.00
Nc1nc2c(-c3ccc(S(=O)(=O)NCC4(F)CNC4)c(S(N)(=O)=O)c3-c3nnn[nH]3)cccc2s1 [Example 46, 4-(2-amino-1,3-benzothiazol-4-yl)-N^1-[(3-fluoroazetidin-3-yl)methyl]-3-(1H-tetrazol-5-yl)benzene-1,2-disulfonamide]	–	0.50
Nc1nc2c(-c3ccc(S(=O)(=O)N[C@@H]4CCCNC4)c(S(N)(=O)=O)c3-c3nnn[nH]3)cccc2[nH]1 [Example 178, (R)-4-(2-amino-1H-benzo[d]imidazol-4-yl)-N^1-(piperidin-3-yl)-3-(1H-tetrazol-5-yl)benzene-1,2-disulfonamide]	–	1.00
Nc1nc2c(-c3ccc(S(=O)(=O)NCc4ccccn4)c(S(N)(=O)=O)c3-c3nnn[nH]3)cccc2s1.O=C(O)C(F)(F)F [Example 106, 2-((4-(2-aminobenzo[d]thiazol-4-yl)-2-sulfamoyl-3-(1H-tetrazol-5-yl)phenylsulfonamido)methyl)pyridin-1-ium 2,2,2-trifluoroacetate]	–	4.00
Nc1ncccc1-c1ccc(S(=O)(=O)NC[C@H]2CNCCN2)c(S(N)(=O)=O)c1-c1nn[nH]n1 [Example 316, (R)-4-(2-aminopyridin-3-yl)-N1-(piperazin-2-ylmethyl)-3-(1H-tetrazol-5-yl)benzene-1,2-disulfonamide]	–	2.00
NCCNS(=O)(=O)c1ccc(-c2cccc3sc(N)nc23)c(-c2nn[nH]n2)c1S(N)(=O)=O [Example 145, 4-(2-aminobenzo[d]thiazol-4-yl)-N1-(2-aminoethyl)-3-(2H-tetrazol-5-yl)benzene-1,2-disulfonamide]	–	0.50
N[C@H](CO)CNS(=O)(=O)c1ccc(-c2cccc3[nH]cnc23)c(-c2nn[nH]n2)c1S(N)(=O)=O [Example 296, (S)—N^1-(2-amino-3-hydroxypropyl)-4-(1H-benzo[d]imidazol-4-yl)-3-(2H-tetrazol-5-yl)benzene-1,2-disulfonamide]	–	1.00
Nc1ccc(-c2ccc(S(=O)(=O)NC[C@]3(N)CCNC3)c(S(N)(=O)=O)c2-c2nn[nH]n2)cn1 [Example 368, (S)-4-(6-aminopyridin-3-yl)-N1-((3-aminopyrrolidin-3-yl)methyl)-3-(2H-tetrazol-5-yl)benzene-1,2-disulfonamide]	–	1.00
Nc1nc2c(-c3ccc(S(=O)(=O)NC[C@H]4CCNC4)c(S(N)(=O)=O)c3-c3nnn[nH]3)cccc2s1 [Example 73, 4-(2-amino-1,3-benzothiazol-4-yl)-N^1-[(3S)-pyrrolidin-3-ylmethyl]-3-(1H-tetrazol-5-yl)benzene-1,2-disulfonamide]	–	0.50
Nc1nc2c(-c3ccc(S(=O)(=O)N[C@H]4CNC[C@H]4O)c(S(N)(=O)=O)c3-c3nnn[nH]3)cccc2[nH]1 [Example 168, 4-(2-amino-1H-benzo[d]imidazol-4-yl)-N^1-((3S,4R)-4-hydroxypyrrolidin-3-yl)-3-(1H-tetrazol-5-yl)benzene-1,2-disulfonamide]	–	0.70
Nc1nc2c(-c3ccc(S(=O)(=O)N[C@H]4CCCNC4)c(S(N)(=O)=O)c3-c3nnn[nH]3)cccc2s1 [Example 67, 4-(2-amino-1,3-benzothiazol-4-yl)-N1-[(3S)-piperidin-3-yl]-3-(1H-tetrazol-5-yl)benzene-1,2-disulfonamide]	–	1.00
NCc1nc2c(-c3ccc(S(=O)(=O)NC[C@H](O)CN)c(S(N)(=O)=O)c3-c3nn[nH]n3)cccc2s1 [Example 300, (R)—N1-(3-amino-2-hydroxypropyl)-4-(2-(aminomethyl)benzo[d]thiazol-4-yl)-3-(2H-tetrazol-5-yl)benzene-1,2-disulfonamide]	–	1.00
